Results taken from US20240174603A1 (Rappta Therapeutics Oy, priority 2021, published 2024).

tested on: LNCaP cells; assay: LNCaP cell viability assay (MTS); type: cell-based; conditions: Homo sapiens, LNCaP cell line, 48 hours
Procedure, shortened: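 LNCaP cells (5000/well) treated 24 h after plating with compound at 1–80 µM for 48 h. Relative cell number read by MTS; GI50 from four-parameter variable-slope log(inhibitor) fit with bottom constrained to zero.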

SMILES | GI50 [µM]
O=S(=O)(NC(CN1CCCC1)c1ccc(Cl)cc1)c1ccc(OC(F)(F)F)cc1 (centres unmarked) [Compound 181, N-(1-(4-chlorophenyl)-2-(pyrrolidin-1-yl)ethyl)-4-(trifluoromethoxy)benzenesulfonamide] | 51.4

same assay, conditions: Homo sapiens, LNCaP, 48 h, LNCaP cell line

SMILES | GI50 [µM]
COc1cc(C2(CNS(=O)(=O)c3ccc(OC(F)(F)F)cc3)CCCC2)ccc1OC(F)F [Compound 33, N-((1-(4-(difluoromethoxy)-3-methoxyphenyl)cyclopentyl)methyl)-4-(trifluoromethoxy)benzenesulfonamide] | 73.4
CN(C)CC(NS(=O)(=O)c1ccc(NC2CCCCC2)cc1)c1ccc(Cl)c(Cl)c1 (centres unmarked) [Compound 268, 4-(cyclohexylamino)-N-(1-(3,4-dichlorophenyl)-2-(dimethylamino)ethyl)benzenesulfonamide] | 15.5
COc1ccc(CNCC(NS(=O)(=O)c2ccc(OC(F)(F)F)cc2)c2ccc(Cl)c(Cl)c2)cc1 (centres unmarked) [Compound 256, N-(1-(3,4-dichlorophenyl)-2-((4-methoxybenzyl)amino)ethyl)-4-(trifluoromethoxy)benzenesulfonamide] | 34
CCOC(=O)CC(NS(=O)(=O)c1ccc(OC(F)(F)F)cc1)c1cccc(Br)c1 (centres unmarked) [Compound 46, Ethyl 3-(3-bromophenyl)-3-((4-(trifluoromethoxy)phenyl)sulfonamido)propanoate] | 49
CN(C)CC(NS(=O)(=O)c1ccc(C(=O)NC2CCCCC2)cc1)c1ccc(Cl)c(Cl)c1 (centres unmarked) [Compound 187, N-cyclohexyl-4-(N-(1-(3,4-dichlorophenyl)-2-(dimethylamino)ethyl)sulfamoyl)benzamide] | 53.6
O=S(=O)(NCCCN(Cc1ccco1)CC1CCCO1)c1ccc(OC(F)(F)F)cc1 (centres unmarked) [Compound 79, N-(3-((furan-2-ylmethyl)((tetrahydrofuran-2-yl)methyl)amino)propyl)-4-(trifluoromethoxy)benzenesulfonamide] | 49
CN(C)CC(NS(=O)(=O)c1ccc(OC(F)(F)F)c(Cl)c1)c1cccc(C(F)(F)F)c1 (centres unmarked) [Compound 191, 3-chloro-N-(2-(dimethylamino)-1-(3-(trifluoromethyl)phenyl)ethyl)-4-(trifluoromethoxy)benzenesulfonamide] | 16.5
CC(Cc1c(Cl)cccc1Cl)NS(=O)(=O)c1ccc(OC(F)(F)F)cc1 (centres unmarked) [Compound 67, N-(1-(2,6-dichlorophenyl)propan-2-yl)-4-(trifluoromethoxy)benzenesulfonamide] | 50
CN(C)CC(NS(=O)(=O)c1ccc(Cl)cc1F)c1ccc(Cl)c(Cl)c1 (centres unmarked) [Compound 160, 4-chloro-N-(1-(3,4-dichlorophenyl)-2-(dimethylamino)ethyl)-2-fluorobenzenesulfonamide] | 58.5
CCCCN(CCCNS(=O)(=O)c1ccc(OC(F)(F)F)cc1)Cc1ccccc1 [Compound 64, N-(3-(benzyl(butyl)amino)propyl)-4-(trifluoromethoxy)benzenesulfonamide] | 36
CN(C)CC(NS(=O)(=O)c1ccc(Oc2ccc(C(F)(F)F)cc2)cc1)c1ccc(Cl)cc1 (centres unmarked) [Compound 194, N-(1-(4-chlorophenyl)-2-(dimethylamino)ethyl)-4-(4-(trifluoromethyl)phenoxy)benzenesulfonamide] | 12.2
CN1CCN(CC(NS(=O)(=O)c2ccc(Oc3ccccc3)cc2)c2ccc(Cl)c(Cl)c2)CC1 (centres unmarked) [Compound 236, N-(1-(3,4-dichlorophenyl)-2-(4-methylpiperazin-1-yl)ethyl)-4-phenoxybenzenesulfonamide] | 12.3
O=S(=O)(NC[C@H](c1ccc(F)cc1)N1CCNCC1)c1ccc(OC(F)(F)F)cc1 [Compound 265, (S)—N-(2-(4-fluorophenyl)-2-(piperazin-1-yl)ethyl)-4-(trifluoromethoxy)benzenesulfonamide] | 40.3
CCCc1ccc(S(=O)(=O)NC(CN(C)C)c2ccc(Cl)c(Cl)c2)cc1 (centres unmarked) [Compound 137, N-(1-(3,4-dichlorophenyl)-2-(dimethylamino)ethyl)-4-propylbenzenesulfonamide] | 12.3
CCCCc1ccc(S(=O)(=O)NC(CN(C)C)c2ccc(Cl)c(Cl)c2)cc1 (centres unmarked) [Compound 214, 4-butyl-N-(1-(3,4-dichlorophenyl)-2-(dimethylamino)ethyl)benzenesulfonamide] | 11.3
CC[C@H](C)[C@H](NS(=O)(=O)c1ccc(OC(F)(F)F)cc1)C(=O)OC(C)(C)C [Compound 7, Tert-butyl ((4-(trifluoromethoxy)phenyl)sulfonyl)-L-isoleucinate] | 57.9
O=S(=O)(NCC1(Cc2ccc(Br)cc2)CC1)c1ccc(OC(F)(F)F)cc1 [Compound 81, N-((1-(4-bromobenzyl)cyclopropyl)methyl)-4-(trifluoromethoxy)benzenesulfonamide] | 40
O=S(=O)(NCCC(c1ccccc1)C(F)(F)F)c1ccc(OC(F)(F)F)cc1 (centres unmarked) [Compound 51, N-(4,4,4-trifluoro-3-phenylbutyl)-4-(trifluoromethoxy)benzenesulfonamide] | 55

SMILES | GI50 [µM]
CC(C)(NS(=O)(=O)c1ccc(OC(F)(F)F)cc1)C1(c2ccc(Cl)c(Cl)c2)CC1 [Compound 245, N-(2-(1-(3,4-dichlorophenyl)cyclopropyl)propan-2-yl)-4-(trifluoromethoxy)benzenesulfonamide] | 45.2
O=S(=O)(NC(CN1CCCC1)c1ccc(Cl)c(Cl)c1)c1ccc(OC(F)(F)F)cc1 (centres unmarked) [Compound 182, N-(1-(3,4-dichlorophenyl)-2-(pyrrolidin-1-yl)ethyl)-4-(trifluoromethoxy)benzenesulfonamide] | 24.5
O=S(=O)(NC(CN1CCNCC1)c1ccc(Cl)cc1)c1ccc(OC(F)(F)F)nc1 (centres unmarked) [Compound 259, N-(1-(4-chlorophenyl)-2-(piperazin-1-yl)ethyl)-6-(trifluoromethoxy)pyridine-3-sulfonamide] | 48.8
CCC(C#N)Oc1cccc(CNS(=O)(=O)c2ccc(OC(F)(F)F)cc2)c1 (centres unmarked) [Compound 52, N-(3-(1-cyanopropoxy)benzyl)-4-(trifluoromethoxy)benzenesulfonamide] | 72
COc1ccc(S(=O)(=O)N2CCC(CNS(=O)(=O)c3ccc(OC(F)(F)F)cc3)CC2)cc1OC [Compound 1, N-((1-((3,4-dimethoxyphenyl)sulfonyl)piperidin-4-yl)methyl)-4-(trifluoromethoxy)benzenesulfonamide] | 63.8
CN(C)CC(NS(=O)(=O)c1ccc(Oc2ccccc2)cc1)c1ccc(Cl)cc1 (centres unmarked) [Compound 190, N-(1-(4-chlorophenyl)-2-(dimethylamino)ethyl)-4-phenoxybenzenesulfonamide] | 11.8
Cc1ccc(CNS(=O)(=O)c2ccc(OC(F)(F)F)cc2)c(OCC(C)C)c1 [Compound 74, N-(2-isobutoxy-4-methylbenzyl)-4-(trifluoromethoxy)benzenesulfonamide] | 60
CN1CCN(CC(NS(=O)(=O)c2ccc(Oc3ccc(C(F)(F)F)cc3)cc2)c2ccc(Cl)cc2)CC1 (centres unmarked) [Compound 235, N-(1-(4-chlorophenyl)-2-(4-methylpiperazin-1-yl)ethyl)-4-(4-(trifluoromethyl)phenoxy)benzenesulfonamide] | 11.3
O=S(=O)(NC(CN1CCNCC1)c1ccc(Cl)c(Cl)c1)c1ccc(OC(F)(F)F)cc1 (centres unmarked) [Compound 237, N-(1-(3,4-dichlorophenyl)-2-(piperazin-1-yl)ethyl)-4-(trifluoromethoxy)benzenesulfonamide] | 6.84
CC(C)(C)OC(=O)N1CC(CNS(=O)(=O)c2ccc(OC(F)(F)F)cc2)OC(C)(C)C1 (centres unmarked) [Compound 77, Tert-butyl 2,2-dimethyl-6-(((4-(trifluoromethoxy)phenyl)sulfonamido)methyl)morpholine-4-carboxylate] | 20
CN(C)C[C@@H](Cc1ccc(Cl)c(Cl)c1)NS(=O)(=O)c1ccc(OC(F)(F)F)cc1 [Compound 246, (R)—N-(1-(3,4-dichlorophenyl)-3-(dimethylamino)propan-2-yl)-4-(trifluoromethoxy)benzenesulfonamide] | 23.8
C=CCCC(NS(=O)(=O)c1ccc(OC(F)(F)F)cc1)c1ccc(C(F)(F)F)cc1 (centres unmarked) [Compound 71, 4-(trifluoromethoxy)-N-(1-(4-(trifluoromethyl)phenyl)pent-4-en-1-yl)benzenesulfonamide] | 20
NC[C@@H](NS(=O)(=O)c1ccc(OC(F)(F)F)cc1)c1ccccc1 [Compound 117, (S)—N-(2-amino-1-phenylethyl)-4-(trifluoromethoxy)benzenesulfonamide] | 55
CC(C)CN(CCNS(=O)(=O)c1ccc(OC(F)(F)F)cc1)CC(C)C [Compound 63, N-(2-(diisobutylamino)ethyl)-4-(trifluoromethoxy)benzenesulfonamide] | 60
CC(C)CCOc1ccccc1CCNS(=O)(=O)c1ccc(OC(F)(F)F)cc1 [Compound 55, N-(2-(isopentyloxy)phenethyl)-4-(trifluoromethoxy)benzenesulfonamide] | 57
CN(C)CC(NS(=O)(=O)c1ccc(C(=O)Nc2ccccc2)cc1)c1ccc(Cl)c(Cl)c1 (centres unmarked) [Compound 186, 4-(N-(1-(3,4-dichlorophenyl)-2-(dimethylamino)ethyl)sulfamoyl)-N-phenylbenzamide] | 48.2
CN(C)CC(NS(=O)(=O)c1ccc(OC(F)(F)F)c([N+](=O)[O-])c1)c1ccc(Cl)c(Cl)c1 (centres unmarked) [Compound 175, N-(1-(3,4-dichlorophenyl)-2-(dimethylamino)ethyl)-3-nitro-4-(trifluoromethoxy)benzenesulfonamide] | 3.23

same assay, conditions: LNCaP cell line, 48 hours

SMILES | GI50 [µM]
O=S(=O)(NC(CC1CC1)c1ccc(F)cc1Br)c1ccc(OC(F)(F)F)cc1 (single isomer, unassigned) [Compound 142b, N-(1-(2-bromo-4-fluorophenyl)-2-cyclopropylethyl)-4-(trifluoromethoxy)benzenesulfonamide] | 49.6
CN(C)CC(NS(=O)(=O)c1ccc(-c2ccccc2)cc1)c1ccc(Cl)c(Cl)c1 (single isomer, unassigned) [Compound 196, N-(1-(3,4-dichlorophenyl)-2-(dimethylamino)ethyl)-[1,1′-biphenyl]-4-sulfonamide] | 15.9
